Experimental data from patent publication US20250009745A1, “CDK INHIBITOR” (SHANGHAI QILU PHARMACEUTICAL RESEARCH AND DEVELOPMENT …, priority 2021, published 2025).

Columns and labels:
Test in all cases: CDK enzymology experiment in vitro, capillary mobility shift assay (MSA)
Assay type in all cases: biochemical
CDK4 = target: T1, CDK4 (Homo sapiens, UniProt P11802); details: read-out: CDK4 (nM) inhibitory IC50
T1 construct: purchased Carna Company
Experimental: (§1) CDK1/CDK2/CDK4/CDK6/CDK7/CDK9 were purchased from Carna Company; Carliper substrate CTD3/substrate 18/substrate 8 were purchased from Gil Biochemical Company; Dinaciclib/Palbociclib were purchased from Selleckchem Company; DMSO was purchased from Sigma Company; 384-well plates were purchased from Corning Company.
(§2) • (1) Preparation of 1×Kinase buffer. • (2) Preparation of compound concentration gradient: Test concentration of the test compound was started at 1 μM, 10 μM or 30 μM, 3-fold dilution, 10 concentrations, detected in duplicate. The test compound was diluted to a 100-fold final concentration with 100% DMSO solution in a 384 source plate. Liquid handler Echo 550 was used to transfer 250 nL of 100-fold final concentration of the compound to the target plate 384-well plate. […] The 384-well plate was centrifuged at 1000 rpm for 30 seconds, and shaken to mix uniformly. • (10) The conversion rate was read with Caliper EZ Reader.
(§3) Where, conversion %_sample is the readings of conversion rate of the sample; conversion %_min: the average value of negative control wells, representing the readings of conversion rate of wells without enzyme activity; conversion %_max: the average value of positive control wells, representing the readings of conversion rate of wells without compound inhibition.
(§4) Taking the log value of the concentration as the X-axis, and the percentage inhibition rate as the Y-axis, the dose-effect curve was fitted using the log(inhibitor) vs. response—Variable slope of the analysis software GraphPad Prism 5 so as to obtain the IC50 value of each compound on the enzyme activity.
(§5) Y=Bottom+(Top−Bottom)/(1+10^((Log IC50−X)*HillSlope)). Calculation formula: […]

CDK2 = target: T2, CDK2 (Homo sapiens, UniProt P24941); details: read-out: CDK2 (nM) inhibitory IC50
T2 construct: purchased Carna Company
Experimental: as §1, §2, §3, §4, §5

CDK6 = target: T3, CDK6 (Homo sapiens, UniProt Q00534); details: read-out: CDK6 (nM) inhibitory IC50
T3 construct: purchased Carna Company
Experimental: as §1
as §2, with “The test compound was diluted to a 100-fold final concentration with 100% DMSO solution in a 384 source plate.” left out
as §3, §4, §5

T3 sequence (Q00534 whole entry): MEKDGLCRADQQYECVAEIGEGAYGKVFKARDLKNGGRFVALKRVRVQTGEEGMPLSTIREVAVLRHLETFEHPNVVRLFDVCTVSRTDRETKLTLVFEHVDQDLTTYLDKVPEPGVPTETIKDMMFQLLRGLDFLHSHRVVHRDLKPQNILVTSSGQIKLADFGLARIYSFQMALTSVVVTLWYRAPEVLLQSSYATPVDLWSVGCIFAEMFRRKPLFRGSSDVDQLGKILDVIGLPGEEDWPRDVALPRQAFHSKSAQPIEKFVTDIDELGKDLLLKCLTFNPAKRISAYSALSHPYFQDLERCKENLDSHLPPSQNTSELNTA
T3 sequence (P30281 whole entry partner): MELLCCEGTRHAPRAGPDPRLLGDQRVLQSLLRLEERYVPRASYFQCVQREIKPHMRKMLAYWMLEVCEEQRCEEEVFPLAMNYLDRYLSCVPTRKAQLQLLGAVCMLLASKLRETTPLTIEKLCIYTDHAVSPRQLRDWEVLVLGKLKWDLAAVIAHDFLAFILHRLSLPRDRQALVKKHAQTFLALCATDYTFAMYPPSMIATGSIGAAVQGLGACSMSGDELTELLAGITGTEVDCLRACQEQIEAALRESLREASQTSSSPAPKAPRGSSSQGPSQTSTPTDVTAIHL
T1 sequence (P11802 whole entry): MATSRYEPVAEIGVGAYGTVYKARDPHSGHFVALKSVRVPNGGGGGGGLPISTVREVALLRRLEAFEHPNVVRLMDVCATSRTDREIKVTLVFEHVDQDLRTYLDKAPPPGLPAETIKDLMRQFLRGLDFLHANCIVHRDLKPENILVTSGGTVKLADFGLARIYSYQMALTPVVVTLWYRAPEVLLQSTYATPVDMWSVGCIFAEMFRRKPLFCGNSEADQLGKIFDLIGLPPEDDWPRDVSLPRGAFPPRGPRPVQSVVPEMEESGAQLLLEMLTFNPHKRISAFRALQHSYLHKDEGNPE
T1 sequence (P30281 whole entry partner): as the sequence (P30281 whole entry partner) above

O=S(=O)([C@H]1CCCNC1)N1CCC(Nc2ncc(C(F)(F)F)c(NC3CCCC3)n2)CC1 [Compound 163]
IC50 (CDK4): 2.5 to 10 nM | IC50 (CDK2): 2.5 to 10 nM | IC50 (CDK6): 0.5 to 2.5 nM

N#Cc1cnc(NC2CCN(S(=O)(=O)c3ccc(C4=CCNCC4)cc3)CC2)nc1NC1CCCC1(F)F (centres unmarked) [Compound 135]
IC50 (CDK4): 0.5 to 2.5 nM | IC50 (CDK2): 0.5 to 2.5 nM | IC50 (CDK6): 0.5 to 2.5 nM

O=S(=O)(c1ccc(N2CC3CNCC3C2)nc1)N1CCC(Nc2ncc(C(F)(F)F)c(O[C@H]3CCOC3)n2)CC1 (some centres unmarked) [Compound 190]
IC50 (CDK4): 0.5 to 2.5 nM | IC50 (CDK2): < 0.5 nM | IC50 (CDK6): 0.5 to 2.5 nM

C[C@@H]1CN(c2ccc(S(=O)(=O)N3CCC(Nc4ncc(C(F)(F)F)c(O[C@H]5CCOC5)n4)CC3)cc2)C[C@@H](C)N1 [Compound 208]
IC50 (CDK4): 2.5 to 10 nM | IC50 (CDK2): 0.5 to 2.5 nM | IC50 (CDK6): 0.5 to 2.5 nM

CN1CCN(c2ccc(S(=O)(=O)N3CCC(Nc4ncc(C(F)(F)F)c(O[C@H]5CCOC5)n4)CC3)cc2)CC1 [Compound 204]
IC50 (CDK4): 0.5 to 2.5 nM | IC50 (CDK2): < 0.5 nM | IC50 (CDK6): 0.5 to 2.5 nM

C[C@H]1CN(c2ccc(S(=O)(=O)N3CCC(Nc4ncc(C(F)(F)F)c(O[C@H]5CCOC5)n4)CC3)cn2)C[C@H](C)N1 [Compound 170]
IC50 (CDK4): 0.5 to 2.5 nM | IC50 (CDK2): < 0.5 nM | IC50 (CDK6): 0.5 to 2.5 nM

Cn1cc(S(=O)(=O)N2CCC(Nc3ncc(C#N)c(N(C4CCCC4)C4CC4)n3)CC2)cn1 [Compound 82]
IC50 (CDK4): 2.5 to 10 nM | IC50 (CDK2): 0.5 to 2.5 nM | IC50 (CDK6): 0.5 to 2.5 nM

Cn1cc(S(=O)(=O)N2CCC(Nc3ncc(C#N)c(CC4CCCC4)n3)CC2)cn1 [Example 10, 4-(Cyclopentylmethyl)-2-((1-((1-methyl-1H-pyrazol-4-yl)sulfonyl)piperidin-4-yl)amino)pyrimidine-5-carbonitrile]
IC50 (CDK4): 10 to 50 nM | IC50 (CDK2): 2.5 to 10 nM

Cn1cc(-c2ccc(S(=O)(=O)N3CCC(Nc4ncc(C#N)c(NC5(C)CCOC5)n4)CC3)cc2)cn1 (centres unmarked) [Compound 150]
IC50 (CDK4): 2.5 to 10 nM | IC50 (CDK2): 0.5 to 2.5 nM

O=S(=O)(c1cn[nH]c1)N1CCC(Nc2ncc(C(F)(F)F)c(O[C@H]3CCOC3)n2)CC1 [Example 25]
IC50 (CDK4): 2.5 to 10 nM | IC50 (CDK2): < 0.5 nM

N#Cc1cnc(NC2CCN(S(=O)(=O)c3ccc(Br)cc3)CC2)nc1N[C@H]1CCOC1 [Compound 106]
IC50 (CDK4): 100 to 1000 nM | IC50 (CDK2): 10 to 50 nM

N#Cc1cnc(NC2CCN(S(=O)(=O)c3ccc(C4=CCNCC4)cc3)CC2)nc1N[C@@H]1CCC[C@H]1O [Compound 91]
IC50 (CDK4): 2.5 to 10 nM | IC50 (CDK2): 0.5 to 2.5 nM

Cn1cc(-c2ccc(S(=O)(=O)N3CCC(Nc4ncc(C#N)c(N[C@@H]5CCOC5)n4)CC3)cc2)cn1 [Compound 95]
IC50 (CDK4): 10 to 50 nM | IC50 (CDK2): 0.5 to 2.5 nM

Cn1ccc(S(=O)(=O)N2CCC(Nc3ncc(C#N)c(NC4CCCC4)n3)CC2)n1 [Compound 33]
IC50 (CDK4): 10 to 50 nM | IC50 (CDK2): 2.5 to 10 nM

Cn1cc(S(=O)(=O)N2CCC(Nc3ncc(C#N)c(O[C@@H]4CCC[C@H]4O)n3)CC2)cn1 (relative stereo) [Compound 68]
IC50 (CDK4): 10 to 50 nM | IC50 (CDK2): 2.5 to 10 nM

CN(C)[C@@H]1CCCC1Nc1nc(NC2CCN(S(=O)(=O)c3cnn(C)c3)CC2)ncc1C#N (some centres unmarked) [Example 23]
IC50 (CDK4): 50 to 100 nM | IC50 (CDK2): 2.5 to 10 nM

Cn1cc(S(=O)(=O)N2CCC(Nc3ncc(C#N)c(O[C@H]4CCOC4)n3)CC2)cn1 [Compound 64]
IC50 (CDK4): 10 to 50 nM | IC50 (CDK2): 2.5 to 10 nM

Cn1cc(S(=O)(=O)N2CCC(Nc3ncc(C(F)(F)F)c(OC4CCCC4)n3)CC2)cn1 [Compound 40]
IC50 (CDK4): 2.5 to 10 nM | IC50 (CDK2): 0.5 to 2.5 nM

CC(C)S(=O)(=O)N1CCC(Nc2ncc(C#N)c(NC3CCCC3)n2)CC1 [Compound 29]
IC50 (CDK4): 10 to 50 nM | IC50 (CDK2): 10 to 50 nM

CN1CCC(S(=O)(=O)N2CCC(Nc3ncc(C#N)c(NC4CCCC4)n3)CC2)CC1 [Compound 85]
IC50 (CDK4): 10 to 50 nM | IC50 (CDK2): 2.5 to 10 nM

CC(C)n1cc(S(=O)(=O)N2CCC(Nc3ncc(C(F)(F)F)c(O[C@H]4CCOC4)n3)CC2)cn1 [Compound 110]
IC50 (CDK4): 10 to 50 nM | IC50 (CDK2): 0.5 to 2.5 nM

C[C@@H](CO)Nc1nc(NC2CCN(S(=O)(=O)c3cnn(C)c3)CC2)ncc1C#N [Compound 69]
IC50 (CDK4): 100 to 1000 nM | IC50 (CDK2): 10 to 50 nM

Cn1cc(S(=O)(=O)N2CCC(Nc3ncc(C#N)c(N[C@@H]4CC[C@@H](O)C4)n3)CC2)cn1 (single isomer, unassigned) [Compound 53]
IC50 (CDK4): 10 to 50 nM | IC50 (CDK2): 2.5 to 10 nM
